Refractive index data for two compounds are collected here from the NIST ThermoML archive (doi:10.1021/acs.jced.6b00424).

SMILES strings stand for the structures. Numbers after ± are expanded uncertainties.

A short description of the data set: refractive index (Na D-line) (dimensionless). The conditions noted are these: 293.15 K, Liquid, Standard Abbe refractometry.

The term refractive index denotes a measure of how strongly the sample bends light. `c1ccoc1` [furan]: the refractive index (101.23 kPa) was 1.4218 ± 0.0004. Turning to `Cc1ccccc1` [toluene], where the note is “100 kPa”, the refractive index was 1.4966 ± 0.0007.
